*1 amine or outer side, *2 acyl side, *3 side chain or, on linkers, in order; H or OH if unused. Where a SMILES comes first, the peptide text is derived from it. Bridges are numbered along the chain shown (N, C = ends). Roman numbers before positions name the chains, in order. [ ]: non-standard residue; d: D form. Actinocin(9to1) = Cc1c2oc3c(C)ccc(C(=O)[*:1])c3nc-2c(C(=O)[*:2])c(N)c1=O; NMeV = CN[C@H](C(=O)O)C(C)C; Sar = CNCC(=O)O
Columns and labels:
[1] = Highest frequency of moderate liver toxicity observed during clinical trials, expressed as a percentage. [column '% BIOL' in source]; conditions: human
[2] = Highest frequency of acute liver toxicity observed during clinical trials, expressed as a percentage. [column '% AIGUE' in source]; conditions: human
[3] = Presence of at least one case with successful reintroduction. [column 'REINT' in source]; conditions: human
[4] = Comments (NB not yet translated). [column 'COMMENTAIRES' in source]; conditions: human
[5] = Times to onset, minimal and maximal, observed in the indexed observations. [column 'DELAI' in source]; conditions: human
[6] = Proposed mechanism(s) of liver damage. [column 'MEC' in source]; conditions: human
[7] = human, serum
[8] = human, serum; remark: listed apart in the source
[9] = human
[10] = human; remark: listed apart in the source
[11] = human; remark: listed apart in the source
[12] = human, serum, 4383 h
[13] = human; remark: listed apart in the source
[14] = human; remark: listed apart in the source
[15] = human; remark: listed apart in the source
[16] = human; remark: listed apart in the source
[17] = human; remark: listed apart in the source
[18] = human; remark: listed apart in the source
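Wherever Hepatotoxicity (association with vascular disease) is given: count of indexed literature references reporting vascular liver injury in humans, e.g. peliosis hepatitis, hepatic veno-occlusive disease or Budd-Chiari syndrome.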
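Wherever Hepatotoxicity (benign tumour) is given: value is a count of indexed literature references citing a benign tumour confirmed by histopathology.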
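Wherever Hepatotoxicity (choleostasis) is given: human cholestatic liver injury, shown by histopathology or by peak ALT or AST elevation over alkaline phosphatase ratio below 2, value counts indexed literature reports.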
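Wherever Hepatotoxicity (chronic liver disease) is given: chronic liver injury confirmed by histopathology or persistently raised serum aminotransferase activity beyond 6 months, value given as the count of indexed literature references.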
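Wherever Hepatotoxicity (cirrhosis) is given: value is a count of indexed literature references reporting cirrhosis confirmed by histopathology.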
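Wherever Hepatotoxicity (cytolytic) is given: human cytolytic liver injury, shown by histopathology or by a ratio above 5 of peak ALT or AST elevation to alkaline phosphatase elevation, value counts indexed references.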
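Wherever Hepatotoxicity (granulomatous hepatitis) is given: value is a count of indexed literature references reporting granulomatous liver disease confirmed by histopathology.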
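Wherever Hepatotoxicity (malignant tumour) is given: malignant tumour confirmed by histopathology, value gives the count of indexed literature references reporting it.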
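Wherever Hepatotoxicity (severe hepatitis) is given: human clinical data: severe hepatitis, meaning potentially life-threatening liver failure or clinically observed cases, the value counts how many indexed literature references report it.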
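Wherever Hepatotoxicity (steatosis) is given: steatosis confirmed by histopathology, value is the count of indexed references.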

SMILES | Hepatotoxicity (moderate) [1] | Hepatotoxicity (acute) [2] | Hepatotoxicity (successful reintroduction) [3] | Hepatotoxicity (comment) [4] | Hepatotoxicity (time to onset) [5] | Hepatotoxicity (mechanism) [6] | Hepatotoxicity (moderate) [7] | Hepatotoxicity (acute) [8] | Hepatotoxicity (cytolytic) [9] | Hepatotoxicity (choleostasis) [10] | Hepatotoxicity (severe hepatitis) [11] | Hepatotoxicity (chronic liver disease) [12] | Hepatotoxicity (cirrhosis) [13] | Hepatotoxicity (granulomatous hepatitis) [14] | Hepatotoxicity (association with vascular disease) [15] | Hepatotoxicity (steatosis) [16] | Hepatotoxicity (malignant tumour) [17] | Hepatotoxicity (benign tumour) [18] | also measured
CCc1oc2ccccc2c1C(=O)c1ccc(O)cc1 [BENZARONE] | 0% | 0% | yes | AC_ANTI-ML/-N | 2 weeks - 2 years | Allergic | 0 | 5 | 3 | 0 | 2 | 3 | 1 | 0 | 0 | 0 | 0 | 0 | –
NC(=O)N1c2ccccc2C=Cc2ccccc21 [CARBAMAZEPINE] | – | – | yes | AC_ANTI-M/-N/-ML CHOLANGITE DUCTOPENIE #CBP REACTIVATION_HSV6 | 1 day - 8 years | Allergic, Reactive metabolite | 40 | 73 | 38 | 41 | – | 4 | 1 | 12 | 0 | 2 | 1 | 0 | Hepatotoxicity (moderate) ([1]; Liver): 23.8%; Hepatotoxicity (acute) ([2]; Liver): 0.2%; Hepatotoxicity (severe hepatitis) ([11]; Liver): 10
CC1(C)S[C@@H]2[C@H](NC(=O)C(C(=O)O)c3ccccc3)C(=O)N2[C@H]1C(=O)O (stereo partly drawn) [CARBENICILLIN] | 56% | 0.7% | yes | RC/TICARCILLINE | 4 days - 3 months | Dose-dependant | 13 | 5 | 5 | 0 | 0 | 0 | 0 | 0 | 0 | 0 | 0 | 0 | –
CCOC(=O)n1ccn(C)c1=S [CARBIMAZOLE] | 0% | 0% | yes | RC/METHIMAZOLE/BENZYLTHIOURACILE | 1 day - 5 years | Allergic | 2 | 18 | 5 | 14 | 3 | 0 | 0 | 1 | 0 | 2 | 0 | 0 | –
CC(=O)OCC1=C(C(=O)O)N2C(=O)[C@@H](NC(=O)CSc3ccncc3)[C@H]2SC1 [CEPHAPIRIN] | 0% | 0% | yes | RC/CEFALOTINE | 1 week | Allergic | 0 | 1 | 0 | 1 | 0 | 0 | 0 | 0 | 0 | 0 | 0 | 0 | –
O=C(O)COCCN1CCN(C(c2ccccc2)c2ccc(Cl)cc2)CC1 (stereo not drawn) [CETIRIZINE] | – | – | yes | AC_ANTI-MFR1 | 1 day - 2 years | Allergic | 1 | 5 | 4 | 1 | – | 0 | 0 | 0 | 0 | 0 | 0 | 0 | Hepatotoxicity (moderate) ([1]; Liver): 3.8%; Hepatotoxicity (acute) ([2]; Liver): 0%; Hepatotoxicity (severe hepatitis) ([11]; Liver): 0
O=C(O)CCCc1ccc(N(CCCl)CCCl)cc1 [CHLORAMBUCIL] | 5.3% | 4.8% | yes | PERICHOLANGITE REACTIVATION_HVB | 2 weeks - 25 months | Allergic | 1 | 7 | 4 | 3 | 1 | 1 | 1 | 0 | 0 | 0 | 1 | 0 | –
CCCNC(=O)NS(=O)(=O)c1ccc(Cl)cc1 [CHLORPROPAMIDE] | 25% | 0.5% | yes | RC/TOLBUTAMIDE/TOLAZAMIDE #CBP | 2 weeks - 2 years | Allergic, Dose-dependant | 3 | 34 | 9 | 29 | 1 | 0 | 0 | 4 | 0 | 0 | 0 | 0 | –
COc1ccc2c(C(=O)c3ccc(Cl)cc3)c(C)n(CC(=O)O)c2c1 [CLOMETACIN] | 0% | 0% | yes | AC_ANTI-ADN/-ML HLAB8 | 1 week - 10 years | Allergic | 6 | 18 | 14 | 12 | 9 | 21 | 9 | 0 | 0 | 0 | 0 | 0 | –
Nc1ccn([C@@H]2O[C@H](CO)[C@@H](O)[C@@H]2O)c(=O)n1 [CYTARABINE] | – | – | yes | HCF HNR REACTIVATION_HVB MVO | 1 cure - 2 cures | – | 33 | 14 | – | – | – | 0 | 0 | – | 7 | 0 | 0 | 0 | Hepatotoxicity (moderate) ([1]; Liver): 75%; Hepatotoxicity (acute) ([2]; Liver): 28.6%; Hepatotoxicity (mechanism) ([6]; Liver): Dose-dependant; Hepatotoxicity (cytolytic) ([9]; Liver): 6; Hepatotoxicity (choleostasis) ([10]; Liver): 3; Hepatotoxicity (severe hepatitis) ([11]; Liver): 6; Hepatotoxicity (granulomatous hepatitis) ([14]; Liver): 0
Cc1c2oc3c(C)ccc(C(=O)N[C@@H]4C(=O)N[C@H](C(C)C)C(=O)N5CCC[C@H]5C(=O)N(C)CC(=O)N(C)[C@@H](C(C)C)C(=O)O[C@@H]4C)c3nc-2c(C(=O)N[C@@H]2C(=O)N[C@H](C(C)C)C(=O)N3CCC[C@H]3C(=O)N(C)CC(=O)N(C)[C@@H](C(C)C)C(=O)O[C@@H]2C)c(N)c1=O [DACTINOMYCIN] (I: T[dV]P[Sar][NMeV] / II: T[dV]P[Sar][NMeV]; ester I:1-I:C, II:1-II:C; linker I:N-II:N via Actinocin(9to1)) | 12% | 8.8% | yes | I/RADIOTHERAPIE HNR | 3 weeks - 2 months | Dose-dependant | 8 | 7 | 5 | 0 | 6 | 1 | 0 | 0 | 16 | 0 | 0 | 1 | –
